Reference: patent publication US20090253634A1, “Methods and Compositions for the Treatment of Gastrointestinal Disorders” (MICROBIA, INC., priority 2005, published 2009)
pKi: −log10 of the molar value. Read-outs that look alike come from different tables or passages of the source. Bridge positions count the residues as written; N and C are the ends. Peptide text beside a SMILES is read from it.

Assays:
[1] = molecular target: T1, GC-C receptors on the cell surface of human colonic cells (T84 cells) (Homo sapiens, UniProt P25092); assay: competitive radioligand-binding assay on T84 cells
T1 construct: 2.5×10^5 T84 cells (0.25 mg protein); host or cells: T84 human colonic cells
Procedure: The radiolabeled tracer used in these experiments was ^125I-SEQ ID NO:7. To determine binding constants, competitive inhibition of binding was used. T84 cells were cultured in T-150 plastic flasks in DMEM and Ham's F-12 medium containing 5% fetal bovine serum. Monolayers at 60-70% confluency (approximately 10^7 cells) were collected by gentle scraping followed by centrifugation, and washed twice in 50 mL of phosphate-buffered saline (PBS). The cells were resuspended in 1 mL DMEM containing 20 mM […] (Hepes), pH 7.0 and 0.5% bovine serum albumin (BSA). T84 cells were incubated with a constant amount of ^125I-SEQ ID NO:7 containing various concentrations of cold competitor. Free ^125I-SEQ ID NO:7 was separated from bound tracer by rapid suction filtration. The binding reactions were carried out in 1.5 mL microfuge tubes in 0.24 mL of DMEM/20 mM Hepes pH 7.0/0.5% BSA containing: 2.5×10^5 T84 cells (0.25 mg protein), 200,000 cpm ^125I-SEQ ID NO:7 (41 fmol, 170 pM), and 0.01 to 1,000 nM competitor. Binding assays at pH 5.0 were done in DMEM/20 mM 2-(N-morpholino) ethanesulfonic acid (Mes), pH 5.0. Binding assays in pH 8.0 were done in DMEM/20 mM Hepes/50 mM sodium bicarbonate pH 8.0. One sample contained no competitor (B0) and another contained no cells. After incubation at 37° C. for 1 h, the reaction mixtures were applied to Whatman GF/B glass-fiber filters by suction filtration. The filters were then rinsed with 10 mL ice-cold PBS buffer, inserted into plastic tubes, and added to 2 mL scintillation fluid. Radioactivity was measured in a LS 6500 liquid scintillation counter (Beckman-Coulter). The percent bound in each sample is calculated by the equation:
% B/B0=(sample cpm−no cells cpm)×100/(B0cpm−no cells cpm)
Competitive radioligand-binding curves were generated using the Graphpad PRISM™ computer program. […]

[2] = molecular target: T2, guanylate cyclase C (Mus musculus, UniProt Q3UWA6); assay: competition binding assay on intestinal epithelial cells of wild-type and GC-C KO mice; settings: GC-C KO mice compared to wild-type mice; 125I-SEQ ID NO:3
T2 construct: isolated intestinal epithelial cells from two female wild-type and two female GC-C KO mice; from tissue; host or cells: mouse intestinal epithelial cells (homogenised), wild-type; GC-C KO mice as control
T2 sequence (Q3UWA6 20-1072): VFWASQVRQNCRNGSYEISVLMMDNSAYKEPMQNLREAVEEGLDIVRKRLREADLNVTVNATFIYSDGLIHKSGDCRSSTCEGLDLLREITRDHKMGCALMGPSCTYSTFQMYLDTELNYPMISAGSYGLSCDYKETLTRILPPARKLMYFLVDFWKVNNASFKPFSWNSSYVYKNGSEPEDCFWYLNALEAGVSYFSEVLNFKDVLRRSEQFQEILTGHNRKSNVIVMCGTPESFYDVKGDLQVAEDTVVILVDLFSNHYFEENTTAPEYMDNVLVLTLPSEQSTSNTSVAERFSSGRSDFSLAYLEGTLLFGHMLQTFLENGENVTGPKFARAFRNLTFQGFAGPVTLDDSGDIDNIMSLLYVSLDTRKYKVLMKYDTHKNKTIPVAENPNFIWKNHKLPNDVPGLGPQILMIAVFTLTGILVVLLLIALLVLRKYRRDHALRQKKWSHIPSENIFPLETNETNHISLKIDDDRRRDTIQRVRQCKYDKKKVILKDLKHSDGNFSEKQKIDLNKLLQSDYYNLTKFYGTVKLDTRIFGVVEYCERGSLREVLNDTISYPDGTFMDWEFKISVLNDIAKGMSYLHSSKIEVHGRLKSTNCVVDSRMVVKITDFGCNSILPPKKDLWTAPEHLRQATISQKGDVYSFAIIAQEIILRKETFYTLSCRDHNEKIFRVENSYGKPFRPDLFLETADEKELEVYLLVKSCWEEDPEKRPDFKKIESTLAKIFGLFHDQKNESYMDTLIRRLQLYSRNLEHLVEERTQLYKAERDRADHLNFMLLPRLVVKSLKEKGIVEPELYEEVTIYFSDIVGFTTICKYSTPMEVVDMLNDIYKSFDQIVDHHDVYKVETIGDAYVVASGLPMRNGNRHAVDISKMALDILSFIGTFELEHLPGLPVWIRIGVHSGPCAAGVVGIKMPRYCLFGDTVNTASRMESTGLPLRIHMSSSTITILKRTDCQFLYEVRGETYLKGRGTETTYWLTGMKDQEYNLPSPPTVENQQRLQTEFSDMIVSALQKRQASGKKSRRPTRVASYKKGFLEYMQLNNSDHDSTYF
Procedure: Mouse intestinal epithelial cells were prepared identical to that above as for rat intestinal epithelial cells except the cells were homogenized with an Omni homogenizer for 20 seconds on the maximum setting to make a suspension of cells. A competition binding assay was performed identical to that described above between ^125I labeled SEQ ID NO:3 and unlabeled SEQ ID NO:3 (competitor).

[3] = molecular target: T3, pepsin (Sus scrofa, UniProt P00791); assay: in vitro proteolytic stability: pepsin; assay type: in vitro ADME, porcine; settings: pH 2.0, 37° C., up to 3 h
T3 construct: purchased Sigma-Aldrich P68871; host or cells: porcine gastric mucosa
Procedure: All samples were analyzed by LC/MS

[4] = system: ligated loop in the small intestine; assay: ligated intestinal loop model in wild-type and GC-C KO mice; assay type: in vivo; settings: 5 μg injected into loop, 90 minutes
Procedure: The length of each loop was also recorded.

[5] = system: ligated loops of intestine; assay: ligated intestinal loop model in rats; assay type: in vivo, CD rats; settings: center loop of the rat small intestine; 5 μg
Procedure: The loop was roughly centered and was a length of 1-3 cm. The loops were injected with 100 μl of either SEQ ID NO:3 (5 μg) or vehicle (20 mM Tris, pH 7.5 or Krebs Ringer, 10 mM Glucose, HEPES buffer (KRGH)). Following a recovery time of 90 minutes the loops were excised. Weights were recorded for each loop before and after removal of the fluid contained therein. The length of each loop was also recorded. A weight to length ratio (W/L) for each loop was calculated to determine the effects of SEQ ID NO:3 on secretion.
To determine the effect of SEQ ID NO:3 on cGMP activity, fluid from the loop was collected in ice-cold trichloracetic acid (TCA) and stored at −80° C. for use in an assay to measure cGMP levels in the fluid. Intestinal fluid samples were TCA extracted, and cyclic GMP was measured by EIA according to procedures outlined in the Cayman Chemical Cyclic GMP EIA kit (Cayman Chemical, Ann Arbor, Mich.) to determine cyclic GMP levels in the intestinal fluid of the mouse in the presence of either SEQ ID NO:3 or vehicle.
In the case of the rat, however four loops of intestine were surgically ligated. The first three loops were distributed equally in the small intestine and the fourth loop was located in colon. Loops were 1 to 3 centimeters, and were injected with 200 μL of either SEQ ID NO:3 (5 μg) or vehicle (Krebs Ringer, 10 mM glucose, HEPES buffer (KRGH)).

T1 sequence (P25092 24-1073): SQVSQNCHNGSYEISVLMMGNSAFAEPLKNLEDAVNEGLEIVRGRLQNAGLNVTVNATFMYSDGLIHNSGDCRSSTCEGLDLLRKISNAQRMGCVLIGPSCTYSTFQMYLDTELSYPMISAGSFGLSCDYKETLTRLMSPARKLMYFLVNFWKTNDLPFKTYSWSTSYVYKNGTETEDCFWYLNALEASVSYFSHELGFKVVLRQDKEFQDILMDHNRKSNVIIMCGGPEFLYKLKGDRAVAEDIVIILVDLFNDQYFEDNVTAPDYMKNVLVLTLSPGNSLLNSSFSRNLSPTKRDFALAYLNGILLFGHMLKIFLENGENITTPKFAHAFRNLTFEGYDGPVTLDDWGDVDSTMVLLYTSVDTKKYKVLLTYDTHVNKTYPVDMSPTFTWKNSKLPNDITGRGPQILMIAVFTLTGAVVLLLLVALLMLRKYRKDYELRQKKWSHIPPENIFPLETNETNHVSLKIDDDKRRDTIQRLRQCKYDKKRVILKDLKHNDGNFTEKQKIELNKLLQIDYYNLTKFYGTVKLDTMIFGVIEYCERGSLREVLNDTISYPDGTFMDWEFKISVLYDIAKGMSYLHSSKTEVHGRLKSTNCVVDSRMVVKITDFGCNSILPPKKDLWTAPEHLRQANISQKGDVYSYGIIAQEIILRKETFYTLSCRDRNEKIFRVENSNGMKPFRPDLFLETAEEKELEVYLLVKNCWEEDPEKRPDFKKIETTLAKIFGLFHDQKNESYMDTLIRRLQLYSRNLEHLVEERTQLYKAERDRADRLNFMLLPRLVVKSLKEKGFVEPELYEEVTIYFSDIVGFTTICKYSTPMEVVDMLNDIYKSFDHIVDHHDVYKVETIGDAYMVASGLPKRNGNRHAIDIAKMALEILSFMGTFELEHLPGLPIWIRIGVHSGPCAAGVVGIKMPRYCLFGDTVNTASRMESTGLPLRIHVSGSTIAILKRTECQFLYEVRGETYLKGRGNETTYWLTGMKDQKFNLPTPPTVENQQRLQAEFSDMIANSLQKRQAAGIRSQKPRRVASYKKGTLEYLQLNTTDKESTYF
T3 sequence (P00791 60-385): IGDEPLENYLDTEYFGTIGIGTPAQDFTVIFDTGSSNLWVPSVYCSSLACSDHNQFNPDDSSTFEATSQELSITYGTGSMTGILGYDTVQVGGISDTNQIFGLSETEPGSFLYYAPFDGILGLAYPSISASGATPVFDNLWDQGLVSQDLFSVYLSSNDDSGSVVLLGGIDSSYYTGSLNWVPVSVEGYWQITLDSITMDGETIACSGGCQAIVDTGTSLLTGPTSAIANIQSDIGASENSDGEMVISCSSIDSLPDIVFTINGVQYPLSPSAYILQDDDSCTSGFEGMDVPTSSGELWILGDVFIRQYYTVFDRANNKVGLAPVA

C[C@@H]1NC(=O)[C@@H]2CCCN2C(=O)[C@H](CC(N)=O)NC(=O)[C@@H]2CSSC[C@H](N)C(=O)N[C@H]3CSSC[C@H](NC1=O)C(=O)N[C@@H]([C@@H](C)O)C(=O)NCC(=O)N[C@H](C(=O)O)CSSC[C@H](NC(=O)[C@H](Cc1ccc(O)cc1)NC(=O)[C@H](CCC(=O)O)NC3=O)C(=O)N2 [SEQ ID NO:6] (H-CCEYCCNPACTGC-OH; disulfide 1-6, 2-10, 5-13)
pKi [1]: 8.80 | pKi ([1]; read-out: Ki2 (low affinity site), pH 7.0, T84 cells, tracer 125I-SEQ ID NO:7): 6.35

C[C@@H]1NC(=O)[C@@H]2CCCN2C(=O)[C@H](CC(N)=O)NC(=O)[C@@H]2CSSC[C@H](N)C(=O)N[C@H]3CSSC[C@H](NC1=O)C(=O)N[C@@H]([C@@H](C)O)C(=O)NCC(=O)N[C@H](C(=O)N[C@@H](Cc1ccc(O)cc1)C(=O)O)CSSC[C@H](NC(=O)[C@H](Cc1ccc(O)cc1)NC(=O)[C@H](CCC(=O)O)NC3=O)C(=O)N2 [SEQ ID NO:3] (H-CCEYCCNPACTGCY-OH; disulfide 1-6, 2-10, 5-13; N-terminus and C-terminus assumed)
binding to intestinal epithelial cells [2]: reduction in SEQ ID NO:3 binding | effect of pH on binding to the high affinity site, Ki1 ([1]; pH 5, 7 and 8): not affected by pH | Cleavage of SEQ ID NO: 3 by proteolytic substance [3]: not detectable | cGMP activity in ligated loop fluid [4]: no effect | secretion in ligated loop (weight to length ratio) [4]: no effect | cGMP levels in ligated loop [5]: increases | secretion in ligated loop [5]: increases
